Assay results taken from patent US10201507B2, “Modulators of intracellular chloride concentration for treating fragile X syndrome” (NEUROCHLORE, priority 2012, dated 2019).
Entries after “also recorded” stand apart in the source; their conditions may differ.

How the values were obtained:
[1] = system: CA3 pyramidal cells; assay: Single GABAA channel recordings of driving force of GABA (DFGABA) in hippocampal slices, drug applied to slice; type: cell-based, mouse
Description: Mice lacking Fmr1 (referred to as Fmr1^−/−) were bred in our animal facility. […] For all experiments, Fmr1^−/− mice were used with wild-type littermates as a control group. The offspring were used for experiments at E18, P0, P2, P4, P7, P9, P15 and P30. Experiments were carried out on offspring of either sex and in a blind manner at E18 and P0.
Experiments were performed on fetuses and neonatal wild type and Fragile X mice from the embryonic day […] to the postnatal day P38 (term is E21). All of the research was performed in compliance with the national guidelines on human care and use of laboratory animals and approved by INSERM.
Hippocampal slices (300-500 μm thick) were prepared using a Microm tissue slicer (International GmbH, Germany) as described previously (Tyzio et al., 2006, 2008). Slices were kept in oxygenated (95% O2/5% CO2) artificial cerebrospinal fluid (ACSF) of the following composition (in mM): NaCl 126, KCl 3.5, CaCl2 2.0, MgCl2 1.3, NaHCO3 25, NaH2PO4 1.2 and glucose 11 (pH 7.4) at room temperature (20-22° C.) at least 1 hour before use.
For recordings, slices were placed into a conventional fully submerged chamber superfused with ACSF at a rate of 2-3 ml/min at room temperature. Patch clamp recordings from visually identified CA3 pyramidal cells in cell-attached configuration were performed using EPC-10 amplifier (HEKA Elektronik Dr. Schulze GmbH, Lambrecht/Pfalz, Germany). Patch pipette solution for recordings of single GABAA channels contained (in mM): NaCl 120, KCl 5, TEA-Cl 20, 4-aminopyridine 5, CaCl2 0.1, MgCl2 10, glucose 10, Hepes-NaOH 10 buffered to pH 7.2-7.3 and GABA 2 μM. Analysis of currents through single channels and current-voltage relationships were performed using Clampfit 9.2 (Axon Instruments, Union City, Calif.). Recordings were digitized (10 kHz) online with Digidata-1200 interface card (Axon Instruments, Union City, Calif.) and analyzed offline with Axon package, MiniAnalysis (S (Synaptsoft, Decatur, Ga.), and Origin (Microcal Software, Northampton, Mass.). […]

[2] = system: hippocampal slices; assay: Extracellular field potentials / spike frequency in hippocampal slices at P15 on isoguvacine; type: cell-based, mouse
From the text: Recording were made in the hippocampal slices using tungsten wire electrodes (diameter: 50 μm, California Fine Wire, Grover Beach, Calif.) and a low-noise multichannel DAM-8A amplifiers (WPI, GB; […]; gain: ×1000). The signals were digitized using an analogue-to-digital converter (Digidata 1440A, Axon Instruments, USA). pCLAMP 10.1, Clampfit 10.1 (Axon Instruments, USA), MiniAnalysis 6.03 (Synaptosoft, Decatur, Calif.) and Origin 7.5 (Microcal Software, USA) programs were used for the acquisition and analysis of the synaptic activities. Sampling interval per signal was 100 microseconds (10 kHz).
To test whether depolarizing actions of GABA were associated with neuronal excitation, the effect of the GABAA receptor agonist isoguvacine was tested. […] To test whether maternal treatment with bumetanide before delivery switches the action of GABA from excitatory to inhibitory in offsprings at P15, pregnant females were treated orally 1 day before delivery with bumetanide (2-2.5 mg/kg in drinking water) and juvenile offspring neurons recorded at P15. […] Therefore, excitatory actions of GABA during delivery produce long term deleterious effects on electrophysiological parameters of FXS juvenile neurons. In FXS mice, GABAergic inputs are excitatory and contribute to hyperexcitability of the network. Bumetanide decreases [Cl^−]i and consequently reduces contribution of excitatory GABAergic inputs in the overall network activity.

[3] = system: child with Fragile X syndrome; assay: Clinical case study, side effects, blood tests, blood ions and weight; type: in vivo, human
Description: This example is a case reports presenting the treatment by bumetanide of a child with Fragile X syndrome.
(§1) Starting from the 5 Jan. 2011, the child received bumetanide twice a day (0.5 mg morning and 0.5 mg evening) during three months. Several biological tests were made at baseline (D0) and then after 7 days (D7), one month (M1), two months (M2) and three months (M3) of treatment. They checked orthostatic hypotension, allergy, cramps, asthenia, diarrhea, myalgia, arthralgia, vertigo and nausea. Blood tests included γ-glutamyltransferase, transaminases, alkaline phosphatases, glycemia, uric acid and creatine, in addition to blood Na^+ and K^+.

[4] = system: child with Fragile X syndrome; assay: Clinical case study, efficacy scales (ABC, GRAM, CGI); type: in vivo, human; conditions: after 90 days, 0.5 mg twice a day
Description: as §1, with “This example is a case reports presenting the treatment by bumetanide of a child with Fragile X syndrome. Starting” for “Starting”, “K^+. Efficacy of the treatment was measured at baseline (D0) and after three months of treatment (M3) using the GRAM scale ([…] Regulation Adaptation Modulation) for analyzing the dysregulation of the activity in a child; the ABC scale (Aberrant Behavior Checklist) for assessing problem behaviors of children and adults with mental retardation; and the CGI scale (Clinical Global Impression) for assessing the clinical amelioration in a patient following a therapeutic treatment.” for “K^+.”

Question: With `CCCCNc1cc(C(=O)O)cc(S(N)(=O)=O)c1Oc1ccccc1` [bumetanide] as the compound, how does the “Effect on DFGABA (in words)” value ([1]; FXS neurons at P0 (birth), oxytocin 1 μM) read?
Answer: shift it to hyperpolarization; also recorded: fully blocked the depolarising DFGABA

Question: And the “Effect on DFGABA (in words)” value ([1]; wild type pyramidal cells at P0)?
Answer: increases hyperpolarization

Question: What about the normalized spike frequency ([2]; FXS mice pretreated with bumetanide, P15, on isoguvacine (10 μM)) of the same compound?
Answer: 80.8±8.2%

Question: And the “Effect on excitatory actions of isoguvacine (in words)” value ([2]; FXS offspring P15, maternal pretreatment)?
Answer: suppressed the excitatory actions

Question: What about the Weight ([3]; 1 month (M1) of treatment) of the same compound?
Answer: 25.1 kg

Question: What about the “blood K^+” value ([3]; 1 month (M1) of treatment) of the same compound?
Answer: 4.3 mmol/L

Question: And the “blood Na^+” value ([3]; 1 month (M1) of treatment)?
Answer: 139 mmol/L

Question: What about the Weight ([3]; 2 months (M2) of treatment) of the same compound?
Answer: 25.4 kg

Question: What about the “blood K^+” value ([3]; 2 months (M2) of treatment) of the same compound?
Answer: 3.5 mmol/L

Question: And the “blood Na^+” value ([3]; 2 months (M2) of treatment)?
Answer: 140 mmol/L

Question: And the Weight ([3]; 3 months (M3) of treatment)?
Answer: 25.7 kg

Question: And the “blood K^+” value ([3]; 3 months (M3) of treatment)?
Answer: 3.6 mmol/L

Question: What about the “blood Na^+” value ([3]; 3 months (M3) of treatment) of the same compound?
Answer: 139 mmol/L

Question: What about the “Natremia (in words)” value ([3]; 3 months of treatment) of the same compound?
Answer: unaltered

Question: What about the “body weight (in words)” value ([3]; 3 months of treatment) of the same compound?
Answer: not altered

Question: What about the “blood K^+ (in words)” value ([3]; 3 months of treatment, inferior limit 3.5 mmol/1) of the same compound?
Answer: reduced to a value close to the inferior limit

Question: And the Weight ([3]; 7 days (D7) of treatment)?
Answer: 25.2 kg

Question: And the “blood K^+” value ([3]; 7 days (D7) of treatment)?
Answer: 3.6 mmol/L

Question: And the “blood Na^+” value ([3]; 7 days (D7) of treatment)?
Answer: 143 mmol/L

Question: And the “side effect in clinical examination” value ([3]; orthostatic hypotension, allergy, cramps, asthenia, diarrhea, myalgia, arthralgia, vertigo, nausea, 3 months)?
Answer: no side effect

Question: What about the Conventional blood tests ([3]; γ-glutamyltransferase, transaminases, alkaline phosphatases, glycemia, uric acid, creatine, 3 months) of the same compound?
Answer: unaffected

Question: What about the CGI result [4] of the same compound?
Answer: 2

Question: What about the “ABC results (Aberrant Behavior Checklist)” value ([4]; baseline 41) of the same compound?
Answer: 27

Question: What about the GRAM results ([4]; baseline 56) of the same compound?
Answer: 31
